# Measured values: patent US20260347338A1, “PYRIMIDINE/PYRIDINE DERIVATIVES OR SALTS THEREOF AND PHARMACEUTICAL COMPOSITIONS COMPRISING THE SAME” (YUHAN CORPORATION, priority 2023, published 2026)
# pIC50: −log10 of the molar value. Where a name gives a salt, the structure may show the parent alone.
# Biological target: T1, human recombinant HPK1 (Homo sapiens, UniProt Q92918)
# T1 construct: purchased BPS Bioscience
# Test: Inhibitory activity against human recombinant HPK1 (TR-FRET)
# Type: biochemical
# Details: ULight-p70S6K peptide, ATP at Km, room temperature, 1 hour, 0.32 to 1000 nM compound
# Description: Test Example: Evaluation of Inhibitory Activity Against Human Recombinant HPK1
# The inhibitory activity against human recombinant HPK1 was evaluated using the Time-Resolved Fluorescence Resonance Energy Transfer (TR-FRET) technology of Perkin-Elmer. The test compound was prepared as a 20 mM stock solution with dimethyl sulfoxide (DMSO), serially diluted in a buffer solution, and used at final compound concentrations of 0.32 to 1000 nM. The evaluation of inhibitory activity was carried out at room temperature, using recombinant human HPK1 (BPS Bioscience). Briefly, recombinant human HPK1, serially diluted each test compound, ULight-p70S6K peptide substrate (PerkinElmer), and ATP at each concentration (Km and final concentration) were added to a kinase buffer solution (50 mM HEPES pH 7.4, 10 mM MgCl2, 1 mM EGTA, 3 mM MnCl2, 2 mM DTT, and 0.01% Tween-20). The resulting mixture was added to each well of a 384-well plate (Optiplate™ 384, white, PerkinElmer). The enzyme reaction was carried out at room temperature for 1 hour. After the reaction was suspended by adding 4 μL of a stop solution (10 mM EDTA) thereto, the mixture was stirred for 1 minute and then a detection solution containing Europium-labeled anti-phosphopeptide antibody (final concentration: 2 nM, PerkinElmer) was added thereto. The signals of TR-FRET at excitation wavelength (320 nm) and emission wavelength (665 nm) were detected using a microplate reader (Envision Multilabel Reader, Perkin-Elmer). Inhibition by the test compound was measured as % inhibition in the signals, compared to the control group treated with DMSO only. The IC50 value of each compound was calculated using the GraphPad Prism program (GraphPad Software, Inc., San Diego, CA, USA). The IC50 values of test compounds for inhibitory activity against HPK1 were classified as follows: • A: IC50≤10 nM • B: 10 nM<IC50≤50 nM • C: 50 nM<IC50≤100 nM • D: IC50>100 nM
# T1 sequence (Q92918 whole entry): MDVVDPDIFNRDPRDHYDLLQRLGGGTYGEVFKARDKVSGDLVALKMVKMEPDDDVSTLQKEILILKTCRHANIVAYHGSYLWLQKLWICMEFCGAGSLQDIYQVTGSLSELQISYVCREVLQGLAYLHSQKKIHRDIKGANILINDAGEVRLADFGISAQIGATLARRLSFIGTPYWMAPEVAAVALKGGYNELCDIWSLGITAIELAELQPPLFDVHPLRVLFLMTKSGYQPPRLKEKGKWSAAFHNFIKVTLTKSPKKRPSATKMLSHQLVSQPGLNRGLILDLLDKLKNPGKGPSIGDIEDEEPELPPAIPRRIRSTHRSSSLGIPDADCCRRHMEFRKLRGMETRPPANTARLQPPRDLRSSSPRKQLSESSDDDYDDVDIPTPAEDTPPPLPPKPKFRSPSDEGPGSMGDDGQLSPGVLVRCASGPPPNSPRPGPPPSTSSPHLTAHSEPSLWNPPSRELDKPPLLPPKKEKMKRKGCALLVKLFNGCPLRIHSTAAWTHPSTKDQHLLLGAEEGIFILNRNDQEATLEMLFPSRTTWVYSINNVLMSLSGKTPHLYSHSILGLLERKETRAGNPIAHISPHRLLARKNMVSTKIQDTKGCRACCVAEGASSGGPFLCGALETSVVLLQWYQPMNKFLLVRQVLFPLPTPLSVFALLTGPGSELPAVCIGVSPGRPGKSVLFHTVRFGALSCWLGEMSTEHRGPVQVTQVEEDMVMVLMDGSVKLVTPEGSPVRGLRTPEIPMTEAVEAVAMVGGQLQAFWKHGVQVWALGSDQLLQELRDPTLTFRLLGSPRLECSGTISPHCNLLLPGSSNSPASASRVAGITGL
row,pIC50,SMILES
1,≥ 8.00,"COc1cccc(F)c1-c1nccc(Nc2cc(N3CC[C@H](N)[C@@H](F)C3)c(-c3cnn(C(F)F)c3)cn2)n1 [Example 302, N-(4-((3S,4S)-4-amino-3-fluoropiperidin-1-yl)-5-(1-(difluoromethyl)-1H-pyrazol-4-yl)pyridin-2-yl)-2-(2-fluoro-6-methoxyphenyl)pyrimidin-4-amine hydrochloride]"
2,≥ 8.00,"COc1cccc(F)c1-c1nccc(Nc2cc(N3CCC[C@H](N)C3)c(-c3cnn(C(F)(F)F)c3)cn2)n1 [Example 107, (S)-N-(4-(3-aminopiperidin-1-yl)-5-(1-(trifluoromethyl)-1H-pyrazol-4-yl)pyridin-2-yl)-2-(2-fluoro-6-methoxyphenyl)pyrimidin-4-amine hydrochloride]"
3,≥ 8.00,"COc1cccc(F)c1-c1nc(Nc2cc(N3CCC[C@H](O)C3)c(C(=O)NC3CC(F)(F)C3)cn2)ccc1[N+](=O)[O-] [Example 198, N-(3,3-difluorocyclobutyl)-6-((6-(2-fluoro-6-methoxyphenyl)-5-nitropyridin-2-yl)amino)-4-((S)-3-hydroxypiperidin-1-yl)nicotinamide]"
4,≥ 8.00,"CCNC(=O)Nc1ccc(-c2cnc(Nc3ccnc(-c4c(F)cccc4OC)n3)cc2N2CCC[C@H](N)C2)cn1 [Example 250, (S)-1-(4′-(3-aminopiperidin-1-yl)-6′-((2-(2-fluoro-6-methoxyphenyl)pyrimidin-4-yl)amino)-[3,3′-bipyridin]-6-yl)-3-ethylurea hydrochloride]"
5,7.30 to 8.00,"COc1cccc(F)c1-c1nccc(Nc2cc(N3CCCC(CC(F)(F)F)C3)c(-c3cnn(C4CCOCC4)c3)cn2)n1 (centres unmarked) [Example 84, 2-(2-fluoro-6-methoxyphenyl)-N-(5-(1-(tetrahydro-2H-pyran-4-yl)-1H-pyrazol-4-yl)-4-(3-(2,2,2-trifluoroethyl)piperidin-1-yl)pyridin-2-yl)pyrimidin-4-amine]"
6,≥ 8.00,"COc1cc(CO)cc(F)c1-c1nccc(Nc2cc(N3CCC[C@H](N)C3)c(C#CC3CCOCC3)cn2)n1 [Example 103, (S)-(4-(4-((4-(3-aminopiperidin-1-yl)-5-((tetrahydro-2H-pyran-4-yl)ethynyl)pyridin-2-yl)amino)pyrimidin-2-yl)-3-fluoro-5-methoxyphenyl)methanol hydrochloride]"
7,≥ 8.00,"O[C@H]1CCCN(c2cc(Nc3ccnc(-c4c(F)cccc4F)n3)ncc2-c2cnn(C3CCOCC3)c2)C1 [Example 22, (S)-1-(2-((2-(2,6-difluorophenyl)pyrimidin-4-yl)amino)-5-(1-(tetrahydro-2H-pyran-4-yl)-1H-pyrazol-4-yl)pyridin-4-yl)piperidin-3-ol]"
8,< 7.00,"COc1cccc(F)c1-c1nccc(Nc2cc(N3CCC[C@H](O)C3)c(-c3ccc(CN4CCCC(O)C4)nc3)cn2)n1 (stereo partly drawn) [Example 49, 1-((6′-((2-(2-fluoro-6-methoxyphenyl)pyrimidin-4-yl)amino)-4′-((S)-3-hydroxypiperidin-1-yl)-[3,3′-bipyridin]-6-yl)methyl)piperidin-3-ol]"
9,≥ 8.00,"COc1cccc(F)c1-c1nc(Nc2cc(N3CCC[C@H](N)C3)c(-c3cnn(C(F)F)c3)cn2)ccc1F [Example 76, 4-((S)-3-aminopiperidin-1-yl)-5-(1-(difluoromethyl)-1H-pyrazol-4-yl)-N-(5-fluoro-6-(2-fluoro-6-methoxyphenyl)pyridin-2-yl)pyridin-2-amine hydrochloride]"
10,≥ 8.00,"COc1cccc(F)c1-c1nccc(Nc2cc(N3CCC[C@H](O)C3)c(C#CC3CCOCC3)cn2)n1 [Example 11, (S)-1-(2-((2-(2-fluoro-6-methoxyphenyl)pyrimidin-4-yl)amino)-5-((tetrahydro-2H-pyran-4-yl)ethynyl)pyridin-4-yl)piperidin-3-ol]"
11,≥ 8.00,"COc1cccc(F)c1-c1nc(Nc2cc(N3CCC[C@H](N)C3)c(-c3cnn(CC(F)(F)F)c3)cn2)ccc1N [Example 170, N^2-(4-((S)-3-aminopiperidin-1-yl)-5-(1-(2,2,2-trifluoroethyl)-1H-pyrazol-4-yl)pyridin-2-yl)-6-(2-fluoro-6-methoxyphenyl)pyridin-2,5-diamine hydrochloride]"
